Experimental data reported in patent publication US20170119769A1, “SCAFFOLDS FOR INHIBITORS OF MENIN-MLL INTERACTIONS” (THE TRUSTEES OF THE UNIVERSITY OF PENNSYLVANIA, priority 2014, published 2017).
“Also recorded” adds a separate entry of the source.

Key:
murine islets = assay: Proliferation (Ki67) in isolated murine islets; format: cell-based, C57BL/6J mice
Excerpt: FIG. 14. Menin inhibitor (MI-2-2) increases proliferation in murine islets, as evidenced by increased number of cells positive for the proliferation marker Ki67. […] Isolated murine islets were pre-cultured for one day before treatment with drug or vehicle.
The ability of MI-2-2 to stimulate cell growth was further tested in murine islets isolated from C57BL/6J mice (Jackson Laboratories, Bar Harbor, Me.).

[1] = system: menin-expressing MEF cells; assay: Cell growth of menin-expressing MEFs; format: cell-based, mouse; details: increasing concentrations from day 1; counted after six days of treatment
Procedure: (§1) FIG. 15. Menin inhibition antagonizes menin mediated suppression of cell proliferation. […] Vector and menin-expressing MEFs (inset) were seeded at 0.25×10^6 cells/10 cm dish on day 0, treated with either DMSO or increasing concentrations of MI-2-2 from day 1 as indicated, and counted after six days of treatment.
(§2) Vector and menin-expressing MEFs (FIG. 15, inset) were seeded at 0.25×10^6 cells/10 cm dish on day 0, treated with either DMSO or increasing concentrations of MI-2-2 from day 1 as indicated, and counted after six days of treatment. Thus, inhibition of menin antagonizes menin mediated suppression of cell proliferation.

GLP1 receptor = GLP1 receptor expression in human islets (real time quantitative PCR); format: cell-based; details: 50 nM, 200 nM or 500 nM for 2 days, vs DMSO
Procedure: FIG. 16. Menin inhibition increases expression of the GLP1 receptor Human islets were cultured in a humidified incubator with 5% CO2 at 37° C. After 24 hours, the islets were treated with vehicle control (DMSO) or varying concentrations of MI-2-2 (50 nM, 200 nM or 500 nM) for 2 days. The islets were harvested and. RNA was isolated and was reverse transcribed to cDNA. cDNA was quantitated by real time quantitative PCR and normalized using β-actin as endogenous control.
Menin inhibition also increases expression of GLP1 receptor, which is the receptor mediating the pro-islet incretin's ability to reduce blood glucose (FIG. 16). Human islets were procured from the Islet Transplantation Center, University of Pennsylvania and cultured in a humidified incubator with 5% CO2 at 37° C. After 24 hours, the islets were treated with vehicle control (DMSO) or varying concentrations of MI-2-2 (50 nM, 200 nM or 500 nM) for 2 days. […] RNA was isolated using the RNeasy Mini Kit (Qiagen, Germantown, Md.) and was reverse transcribed to cDNA using the SuperScript® III Reverse Transcriptase (Life Technologies, Grand Island, N.Y.). cDNA was quantitated by real time quantitative PCR using QuantiTect SYBR® Green (Qiagen, Germantown, Md.) on a 7500 Fast Real time PCR system (AppliedBiosystems, Life Technologies, Grand Island, N.Y.) and normalized using β-actin as endogenous control.

[2] = system: menin-null (vector) MEF cells; assay: Cell growth of menin-null (vector) MEFs; format: cell-based, mouse; details: increasing concentrations from day 1; counted after six days of treatment
Procedure: as §1, §2

For `CC1(C)CN=C(N2CCN(c3ncnc4sc(CC(F)(F)F)cc34)CC2)S1` [MI-2-2], the “Ki67 staining in murine islets” value (murine islets; 500 nM for two days, compared with vehicle control) was “increased Ki67 staining”, the “Ki67 positive cells per unit area in murine islets” value (murine islets; treatment for 2 days, concentration dependence) was “increased the number of proliferating cells in a concentration dependent manner; also recorded: dose dependent increase” and the “cell growth of menin-expressing MEFs” value [1] was “increased cell growth in menin MEFs in a concentration dependent manner; also recorded: increases proliferation of menin-expressing MEF cells”. For the same compound, the “expression of GLP1 receptor relative to β-actin expression” value (GLP1 receptor) was “about 2 fold” and the “cell growth of menin-null (vector) MEFs” value [2] was “did not do so in vector MEFs; also recorded: not menin-null (vector) cells”.
